# From PubChem BioAssay (NCI)
# Where “and” joins values, the source holds several entries; their conditions need not be identical. Identical values can stand only once.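 Briefly, cells in 96-well plates were exposed to five compound concentrations for 48 h, and endpoints were estimated by linear interpolation. GI50 = concentration required for 50% inhibition of growth. TGI is the concentration that stops growth completely.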
# Assays:
# Test in all cases: growth of human tumour cells (NCI), 48 h
# CAKI-1 renal = tested on: CAKI-1 renal
# SK-MEL-2 melanoma = tested on: SK-MEL-2 melanoma
# A498 renal = tested on: A498 renal
# SNB-19 CNS = tested on: SNB-19 CNS
# HCT-15 colon = tested on: HCT-15 colon
# KM12 colon = tested on: KM12 colon
# NCI/ADR-RES ovarian = tested on: NCI/ADR-RES ovarian
# PC-3 prostate = tested on: PC-3 prostate
# NCI-H226 lung = tested on: NCI-H226 lung
# SNB-75 CNS = tested on: SNB-75 CNS
SMILES,GI50 (CAKI-1 renal),TGI (CAKI-1 renal),GI50 (SK-MEL-2 melanoma),TGI (SK-MEL-2 melanoma),GI50 (A498 renal),TGI (A498 renal),GI50 (SNB-19 CNS),TGI (SNB-19 CNS),GI50 (HCT-15 colon),TGI (HCT-15 colon),GI50 (KM12 colon),TGI (KM12 colon),GI50 (NCI/ADR-RES ovarian),TGI (NCI/ADR-RES ovarian),GI50 (PC-3 prostate),TGI (PC-3 prostate),GI50 (NCI-H226 lung),TGI (NCI-H226 lung),GI50 (SNB-75 CNS),TGI (SNB-75 CNS)
Cc1cc(Nc2nc(N[C@@H](C)c3ncc(F)cn3)ncc2Cl)n[nH]1,17.5 µM,> 100 µM,28.7 µM,92.1 µM,1.85 µM,13.1 µM,51.7 µM,> 100 µM,24.9 µM,> 100 µM,0.369 µM,> 64.1 µM,32 µM,> 100 µM,43.7 µM,> 100 µM,1.14 µM,54.8 µM,8.85 µM,36.4 µM
O=C(O)C1[O][Sb][O]C(C(=O)O)C1O (stereo unspecified),> 100 µM,> 100 µM,> 100 µM,> 100 µM,> 100 µM,> 100 µM,> 100 µM,> 100 µM,> 100 µM,> 100 µM,> 100 µM,> 100 µM,> 100 µM,> 100 µM,> 100 µM,> 100 µM,> 100 µM,> 100 µM,> 100 µM,> 100 µM
CCCCCCCCCC[C@H](O)[C@H](O)CC[C@@H](O)[C@H]1CC[C@@H]([C@H]2CC[C@H](CCCCCCC[C@@H](O)CC3=C[C@H](C)OC3=O)O2)O1,32.4 µM,9.67 µM and 89 µM,27 µM,–,17.7 µM,87.1 µM,29.5 µM,–,23.8 µM,> 100 µM,27.7 µM,> 100 µM,18.2 µM,> 100 µM,11.7 µM,40.7 µM,21.2 µM,–,25.8 µM,98.2 µM
Clc1ccccc1-c1nnc2c(Cc3ccccc3)nc3ccccc3n12,9.59 µM,> 100 µM,59.4 µM,> 100 µM,1.21 µM,> 100 µM,36.3 µM,> 100 µM,1.56 µM,> 100 µM,13.1 µM,> 100 µM,12.7 µM,> 100 µM,4.66 µM,> 100 µM,6.91 µM,> 100 µM,3.78 µM,40.3 µM
Cc1cc(-c2cc(O)ccc2Cl)cc2nnc(Nc3ccc(OCCN4CCCC4)cc3)nc12,1.54 µM,2.97 µM,1.7 µM,3.64 µM,1.41 µM,2.92 µM,0.659 µM,1.23 µM,0.183 µM,0.36 µM,0.617 µM,1.32 µM,0.682 µM,1.61 µM,0.424 µM,1.54 µM,4.71 µM,7.12 µM,0.824 µM,2.22 µM
CC(C)CCCCCCCCCCCCC(=O)NCC(=O)NC1C(O)C(O)C(Nc2ncnc3nc[nH]c23)OC1C(O)CO (stereo unspecified),< 1e-05 µM,0.0011 µM and 0.000619 µM,< 1e-05 µM,0.0117 µM and 0.0389 µM and 0.0107 µM,0.005 µM,0.0123 µM and 0.0132 µM,–,0.0121 µM and 0.00367 µM and 0.00683 µM,0.00599 µM and 0.0249 µM,0.896 µM and 1.1 µM,–,0.0479 µM and 0.0235 µM,–,0.124 µM and 0.0422 µM,< 1e-05 µM,–,–,–,< 1e-05 µM,–
O=C1/C(=C/c2ccc(Cl)cc2)CNC/C1=C\c1ccc(Cl)cc1,–,5.98 µM and 3.82 µM,4.92 µM and 14.5 µM,28.4 µM and 43.2 µM,–,5.01 µM and 25.6 µM,–,3.14 µM and 11 µM,–,2.6 µM,–,3.07 µM,–,9.61 µM,–,21.2 µM,–,–,–,10.3 µM and > 29.5 µM
N#Cc1cnc(Nc2cc(NC[C@H]3CNCCO3)c(C(F)(F)F)cn2)cn1,–,–,12.6 µM,34.7 µM,0.462 µM,18 µM,9.67 µM,> 100 µM,11 µM,> 100 µM,11.4 µM,88.4 µM,1.73 µM,84.5 µM,21.1 µM,87.5 µM,22.4 µM,85.3 µM,11.5 µM,28.1 µM
COC(=O)c1cc2c3ccccc3n3c2c(n1)-c1[nH]c2ccccc2c(=O)c1C3,> 100 µM,> 100 µM,36.4 µM,> 100 µM,27 µM,73.7 µM,26.3 µM,> 100 µM,> 100 µM,> 100 µM,> 100 µM,> 100 µM,> 100 µM,> 100 µM,> 100 µM,> 100 µM,–,–,16 µM,71.3 µM
